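Tested at 5 concentrations; 48 h exposure; 96-well plates; endpoints linearly interpolated, else capped at highest concentration. GI50 is the concentration that inhibits growth by half.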 The source made the active and inactive calls. Cut-off read from the data, not from the text of the source: active = GI50 up to about 1.1 µM and inactive = higher.
Legend:
Experiment in all cases: DTP human tumour cell line panel, 48 h
786-0 = tested on: 786-0
A498 = tested on: A498
A549 = tested on: A549
ACHN = tested on: ACHN
BT-549 = tested on: BT-549
CAKI-1 = tested on: CAKI-1
CCRF-CEM = tested on: CCRF-CEM
COLO 205 = tested on: COLO 205
DU-145 = tested on: DU-145
EKVX = tested on: EKVX
HCC 2998 = tested on: HCC 2998
HCT-116 = tested on: HCT-116
HCT-15 = tested on: HCT-15
HL-60 = tested on: HL-60
HOP-62 = tested on: HOP-62
HOP-92 = tested on: HOP-92
HT-29 = tested on: HT-29
Hs-578T = tested on: Hs-578T
IGROV-1 = tested on: IGROV-1
K562 = tested on: K562
KM12 = tested on: KM12
LOX IMVI = tested on: LOX IMVI
M14 = tested on: M14
MCF7 = tested on: MCF7
MDA-MB-231 = tested on: MDA-MB-231
MDA-MB-435 = tested on: MDA-MB-435
MDA-N = tested on: MDA-N
MOLT-4 = tested on: MOLT-4
Malme-3M = tested on: Malme-3M
NCI-H226 = tested on: NCI-H226
NCI-H23 = tested on: NCI-H23
NCI-H460 = tested on: NCI-H460
NCI-H522 = tested on: NCI-H522
NCI/ADR-RES = tested on: NCI/ADR-RES
OVCAR-3 = tested on: OVCAR-3
OVCAR-4 = tested on: OVCAR-4
OVCAR-5 = tested on: OVCAR-5
OVCAR-8 = tested on: OVCAR-8
PC-3 = tested on: PC-3
RPMI-8226 = tested on: RPMI-8226
RXF 393 = tested on: RXF 393
SF-268 = tested on: SF-268
SF-295 = tested on: SF-295
SF-539 = tested on: SF-539
SK-MEL-28 = tested on: SK-MEL-28
SK-MEL-2 = tested on: SK-MEL-2
SK-MEL-5 = tested on: SK-MEL-5
SK-OV-3 = tested on: SK-OV-3
SN12C = tested on: SN12C
SNB-19 = tested on: SNB-19
SNB-75 = tested on: SNB-75
SR = tested on: SR
SW-620 = tested on: SW-620
T47D = tested on: T47D
TK-10 = tested on: TK-10
U-251 = tested on: U-251
UACC-257 = tested on: UACC-257
UACC-62 = tested on: UACC-62
UO-31 = tested on: UO-31
DLD-1 = tested on: DLD-1
DMS-114 = tested on: DMS-114
DMS-273 = tested on: DMS-273
LXFL 529 = tested on: LXFL 529
M19-MEL = tested on: M19-MEL
SNB-78 = tested on: SNB-78

In the case of `O=c1c(-c2nc3ccccc3c3ccccc3c2=O)nc2ccccc2c2ccccc12`, the GI50 (786-0) is reported as 36 µM (inactive), the GI50 (A498) is reported as 35.7 µM (inactive) and the GI50 (A549) is reported as 48 µM (inactive). For the same compound, the GI50 (ACHN) was 36.1 µM (inactive), the GI50 (BT-549) was 47.1 µM (inactive) and the GI50 (CAKI-1) was 38.9 µM (inactive). The GI50 (CCRF-CEM) was 28.1 µM (inactive), the GI50 (COLO 205) was 38.4 µM (inactive) and the GI50 (DU-145) was 80.9 µM (inactive). The GI50 (EKVX) was 50.1 µM (inactive), the GI50 (HCC 2998) was 21.9 µM (inactive) and the GI50 (HCT-116) was 23.8 µM (inactive). For the same compound, the GI50 (HCT-15) was 32.7 µM, the GI50 (HL-60) was 20 µM (inactive) and the GI50 (HOP-62) was 34.8 µM (inactive). The GI50 (HOP-92) was 37.1 µM (inactive), the GI50 (HT-29) was 43.5 µM (inactive) and the GI50 (Hs-578T) was 51.4 µM (inactive). The GI50 (IGROV-1) was 44.9 µM (inactive), the GI50 (K562) was 32.9 µM (inactive) and the GI50 (KM12) was 38.3 µM (inactive). For the same compound, the GI50 (LOX IMVI) was 32.1 µM (inactive), the GI50 (M14) was 35.2 µM (inactive) and the GI50 (MCF7) was 38 µM (inactive). The GI50 (MDA-MB-231) was 34 µM (inactive), the GI50 (MDA-MB-435) was 29.2 µM (inactive) and the GI50 (MDA-N) was 24.3 µM (inactive). For the same compound, the GI50 (MOLT-4) was 34.6 µM (inactive), the GI50 (Malme-3M) was 76.6 µM (inactive) and the GI50 (NCI-H226) was > 100 µM (inactive). For the same compound, the GI50 (NCI-H23) was 40 µM (inactive), the GI50 (NCI-H460) was 41.3 µM (inactive) and the GI50 (NCI-H522) was 37.1 µM (inactive). For the same compound, the GI50 (NCI/ADR-RES) was 34 µM (inactive), the GI50 (OVCAR-3) was 28.4 µM (inactive) and the GI50 (OVCAR-4) was 37.5 µM (inactive). For the same compound, the GI50 (OVCAR-5) was 80.4 µM (inactive), the GI50 (OVCAR-8) was 27.7 µM (inactive) and the GI50 (PC-3) was 27.7 µM (inactive). For the same compound, the GI50 (RPMI-8226) was 26.2 µM (inactive), the GI50 (RXF 393) was 26.8 µM (inactive) and the GI50 (SF-268) was 41 µM (inactive). For the same compound, the GI50 (SF-295) was 29.7 µM (inactive), the GI50 (SF-539) was 24.5 µM (inactive) and the GI50 (SK-MEL-28) was 55.5 µM (inactive). For the same compound, the GI50 (SK-MEL-2) was 27.4 µM (inactive), the GI50 (SK-MEL-5) was 24.8 µM (inactive) and the GI50 (SK-OV-3) was > 100 µM (inactive). The GI50 (SN12C) was 28.6 µM (inactive), the GI50 (SNB-19) was 30.3 µM (inactive) and the GI50 (SNB-75) was 32.1 µM (inactive). For the same compound, the GI50 (SR) was 21.9 µM (inactive), the GI50 (SW-620) was 33.7 µM (inactive) and the GI50 (T47D) was 32.6 µM (inactive). For the same compound, the GI50 (TK-10) was 48.4 µM (inactive), the GI50 (U-251) was 22.2 µM (inactive) and the GI50 (UACC-257) was 33.8 µM (inactive). For the same compound, the GI50 (UACC-62) was 30.2 µM (inactive) and the GI50 (UO-31) was 90.2 µM (inactive).

`COc1cc(C)c2c(c1)CN1CN2Cc2cc(OC)cc(C)c21` was tested, and the GI50 (786-0) was 74.1 µM (inactive), the GI50 (A549) was 96.4 µM (inactive) and the GI50 (ACHN) was 37.8 µM (inactive). For the same compound, the GI50 (CAKI-1) was > 100 µM (inactive), the GI50 (CCRF-CEM) was 65.6 µM (inactive) and the GI50 (COLO 205) was 57 µM (inactive). For the same compound, the GI50 (DLD-1) was 31.4 µM (inactive), the GI50 (DMS-114) was 21.5 µM (inactive) and the GI50 (DMS-273) was 38.2 µM (inactive). The GI50 (EKVX) was 32.7 µM (inactive), the GI50 (HCT-116) was 47.9 µM (inactive) and the GI50 (HCT-15) was 34.8 µM. For the same compound, the GI50 (HL-60) was 21.4 µM (inactive), the GI50 (HOP-62) was 65.6 µM (inactive) and the GI50 (HOP-92) was 35.3 µM (inactive). For the same compound, the GI50 (HT-29) was 74.8 µM (inactive), the GI50 (IGROV-1) was 97.1 µM (inactive) and the GI50 (K562) was 46.9 µM (inactive). The GI50 (KM12) was 58.2 µM (inactive), the GI50 (LOX IMVI) was 66.2 µM (inactive) and the GI50 (LXFL 529) was 60 µM (inactive). The GI50 (M14) was > 100 µM (inactive), the GI50 (M19-MEL) was 38.9 µM (inactive) and the GI50 (MOLT-4) was 45 µM (inactive). The GI50 (Malme-3M) was 67.9 µM (inactive), the GI50 (NCI-H226) was 49.5 µM (inactive) and the GI50 (NCI-H23) was 45.8 µM (inactive). For the same compound, the GI50 (NCI-H460) was 64.6 µM (inactive), the GI50 (NCI-H522) was > 100 µM (inactive) and the GI50 (OVCAR-3) was 25.5 µM (inactive). For the same compound, the GI50 (OVCAR-4) was 32.8 µM (inactive), the GI50 (OVCAR-5) was 27.9 µM (inactive) and the GI50 (OVCAR-8) was 85.7 µM (inactive). For the same compound, the GI50 (RPMI-8226) was 43.8 µM (inactive), the GI50 (SF-268) was 48.1 µM (inactive) and the GI50 (SF-295) was 52.4 µM (inactive). The GI50 (SF-539) was > 100 µM (inactive), the GI50 (SK-MEL-2) was 45.6 µM (inactive) and the GI50 (SK-MEL-5) was 3.66 µM (inactive). For the same compound, the GI50 (SK-OV-3) was > 100 µM (inactive), the GI50 (SN12C) was 46.3 µM (inactive) and the GI50 (SNB-19) was < 0.01 µM (active). For the same compound, the GI50 (SNB-75) was 11.2 µM (inactive), the GI50 (SNB-78) was 56.8 µM (inactive) and the GI50 (SR) was 36.1 µM (inactive). For the same compound, the GI50 (SW-620) was > 100 µM (inactive), the GI50 (U-251) was 50.6 µM (inactive) and the GI50 (UACC-62) was 29.9 µM (inactive). The GI50 (UO-31) was 33.1 µM (inactive).
